Measured values reported in patent US20210179623A1, “NEW CHEMICAL COMPOUND CONTAINING ACTIVE ENANTIOMETER S-(-) KETOROLAC TROMETHAMINE FOR THE TREATMENT OF PAIN” (priority 2017, published 2021).
Like-named read-outs stand apart in the source and are kept apart here.

How the values were obtained:
[1] = tested on: rat population; settings: rats, oral route; FIG. 7
[2] = tested on: gouty arthritis-type pain; assay: PIFIR pain-induced functional impairment model in the rat; format: in vivo, male Wistar rats; settings: for MAXIMUM EFFICACY (ABC: X ± E.E.): dose of each analgesic (mg/kg); for Emax reached in the temporal curve / latency in reaching the Emax in the temporal curve: highest doses; for RELATIVE EFFICACY: relative to maximum efficacy of rac-ketorolac
Description: In order to determine and compare the antinociceptive effects of these analgesics the preclinical experimental model of PIFIR “pain-induced functional impairment model in the rat” was used.

[3] = cited from earlier work
[4] = tested on: plasmatic proteins; settings: cited from earlier work
[5] = doses needed to generate 50% of the most effective effect, oral route

| Molecule | lethal dose 50 (LD50) [1] | effective dose 50 (ED50, 50% of its own maximum effect) ([2]; PIFIR model, rats, oral route, FIG. 6) | MAXIMUM EFFICACY (ABC: X ± E.E.) ([2]; PIFIR model, rats, oral route) | ED60 (mg/kg, oral route) (with regard to Emax: 324 au) ([2]; PIFIR model, rats) | times more potent than acetylsalicylic acid [2, 5] | times more potent than morphine [2, 5] | times more potent than rac-ketorolac [2, 5] | fixed effect 4 hours after administration ([2]; higher doses, oral route, 4 hours) | Emax reached in the temporal curve ([2]; oral route) | latency in reaching the Emax in the temporal curve ([2]; oral route) | onset of the analgesic effects after administration ([3]; any presentation) | excreted renally as a conjugated metabolite ([3]; in vivo) | excreted renally as a hydroxylated metabolite ([3]; in vivo) | excreted renally as the unaltered drug ([3]; in vivo) | metabolized in the liver by conjugation ([3]; inactive metabolites) | time of maximum level ([3]; intravenous and intramuscular use) | time of maximum level ([3]; oral administration, tablets or capsules) | bonds with plasmatic proteins [4] | RELATIVE POTENCY (relative to 5-ketorolac) ([2]; PIFIR model, rats, oral route) | RELATIVE EFFICACY ([2]; PIFIR model, rats, oral route) |
| --- | --- | --- | --- | --- | --- | --- | --- | --- | --- | --- | --- | --- | --- | --- | --- | --- | --- | --- | --- | --- |
| 2-amino-2-hydroximethyl-1,3 propanediol (1:1) S-(−)-5-benzoyl-2,3-dihydro-1H-pyrrolizine-1-carboxylate [S-(−)-ketorolac tromethamine] | smaller than the acetylsalicylic acid, but larger than the one reported for rac-ketorolac and morphine | less than the rest of the active substances being studied | 310.5 ± 13.5 | 0.36 ± 1.0 mg/kg | 1037 times | 82 times | 3.3 times | the same as that exhibited for rac-ketorolac and by morphine but higher than that exhibited by acetylsalicylic acid | Emax similar to that exhibited by rac-ketorolac and morphine, but this Emax was higher than that exhibited by acetylsalicylic acid | latency similar to that exhibited by rac-ketorolac, but less than that exhibited by morphine |  |  |  |  |  |  |  |  |  |  |
| O=C(c1ccccc1)c1ccc2n1CCC2C(=O)O (racemic) [rac-ketorolac, ketorolac tromethamine] |  |  | 324.6 ± 7.8 | 1.19 ± 1.2 mg/kg |  |  |  |  |  |  | 30 min | 21.9% | 11.5% | 60.2% | 21% | first and second hour | 3 h | 99% | −3.3 | 1.0 |
| CC(=O)Oc1ccccc1C(=O)O [Acetylsalicylic Acid, acetylsalicylic acid] |  |  | 226.6 ± 11.7 | 373.3 ± 1.7 mg/kg |  |  |  |  | smaller than those exhibited by the other analgesics | least latency in reaching its Emax |  |  |  |  |  |  |  |  | −1,036.9 | 0.70 |
| CN1CC[C@]23c4c5ccc(O)c4O[C@H]2[C@@H](O)C=C[C@H]3[C@H]1C5 [Morphine, morphine] |  |  | 310.8 ± 8.9 | 29.35 ± 1.1 mg/kg |  |  |  |  |  |  |  |  |  |  |  |  |  |  | −81.5 | 1.0 |
